# Experimental data reported in patent publication US20080207738A1, “DRUG COMBINATIONS TO TREAT DRUG RESISTANT TUMORS” (priority 2007, published 2008).
# Test: in vitro
# Details: human, decrease of viability of healthy lymphocytes
# From the text: For the determination of relative number of viable cells before and after treatments, in most cases the MTT assay was used. This calorimetric assay is based on the ability of living cells, but not dead cells, to reduce 3-(4, 5-dimethyl thiazol-2-yl)-2, 5-diphenyltetrazolium bromide [Carmichael, J, De Graff, W. G., Gazdar, A. F., Minna, J. D. and Mitchell, J. B. (1987), “Evaluation oftetrazolium-based semiautomated calorimetric assay: Assessment of chemosensitivity testing,” Cancer Res., 47, 936-942]. For this assay, cells were plated in 96-well plates (10,000-30,000 cells in case of cultured cells, 100,000 cells in case of healthy lymphocytes, and 200,000 cells in case of chronic lymphocytic leukemia or non-Hodgkin lymphocytes) in the respective incubation media. After a 24-h resting period, the cells were treated with the test agents and then incubated (in CO2 incubator under humidified atmosphere) for 72 hours (final incubation volume, 150 μl). The MTT assay was performed both with the untreated and treated cell cultures at the conclusion of the incubation. Often, the MTT assay also was performed at the start of treatments to allow assessment of proliferation rates in the control and treated cell cultures. All data presented are the average of 4 incubations (in 4 separate wells) with the same cell population.
# Peripheral lymphocytes are known to be very sensitive to chemotherapy and this sensitivity often limits the dose of chemotherapy that can be employed. In this series of experiments, the combined effects of CCcompound104 alone or in combination with CCcompound26 or CCcompound3 were determined on the viability of peripheral lymphocytes to establish doses that reduce cell viability less than 50%. As in previous experiments, the treatments were performed for 72 hours.
structure (smiles),measurement,setting,value
"C=CC[N+](CC)(CC)CC/C=C1/c2ccccc2Sc2ccc(C)cc21.[Br-] [CCcompound26, N,N-Diethyl-N-allyl-3-(2-methyl-9H-thioxanthen-9-ylidene)-propan-1-aminiumbromide]","cytotoxicity at 72 h, 50 μM",,100%
same,"cytotoxicity at 72 h, 1 μM",over 4 lymphocyte preparations,3 to 13%
